Measurements reported in US6620828B2, “Thiazole compounds and pharmaceutical compositions for inhibiting protein kinases and methods for their use” (Agouron Pharmaceuticals, Inc., priority 1999, dated 2003).

System: human umbilical vein endothelial cells (HUVEC)
Test: HUVEC proliferation assay
Type: cell-based
Details: Homo sapiens, HUVEC, Table I screening results; 150 nM; crude combinatorial amide library
Method in brief: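 Readout was MTT dye reduction (A595) after 72 h of stimulation with VEGF at 6 ng/ml final. Compound, in 0.1% DMSO final, was added 1 h before VEGF to HUVEC starved 24 h in 1% FBS. % inhibition was scaled between VEGF-alone and unstimulated wells; IC50 was fitted from triplicate dose curves.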

| Structure (SMILES) | inhibition at 0.15 µM |
| --- | --- |
| COc1cc(Nc2nc(N)c(-c3nc(-c4cccc(NC(=O)CC56CC7CC8CC(C5)C8(C7)C6)c4)cs3)s2)cc(OC)c1OC (stereo not shown) | 8% |
| COc1cc(Nc2nc(N)c(-c3nc(-c4cccc(NC(=O)c5ccc(C(=O)c6ccccc6)cc5)c4)cs3)s2)cc(OC)c1OC | 7% |
| COc1cc(Nc2nc(N)c(-c3nc(-c4cccc(NC(=O)c5cc6cc(Cl)ccc6[nH]5)c4)cs3)s2)cc(OC)c1OC | 0% |
| COc1cc(Nc2nc(N)c(-c3nc(-c4cccc(NC(=O)CCC5CCCCC5)c4)cs3)s2)cc(OC)c1OC | 8% |
| COc1cc(Nc2nc(N)c(-c3nc(-c4cccc(NC(=O)/C=C/c5ccccc5)c4)cs3)s2)cc(OC)c1OC | 36% |
| COc1cc(Nc2nc(N)c(-c3nc(-c4cccc(NC(=O)CC(c5ccccc5)c5ccccc5)c4)cs3)s2)cc(OC)c1OC | 10% |
| COc1cc(Nc2nc(N)c(-c3nc(-c4cccc(NC(=O)c5ccoc5)c4)cs3)s2)cc(OC)c1OC | 7% |
| COc1cc(Nc2nc(N)c(-c3nc(-c4cccc(NC(=O)c5ccco5)c4)cs3)s2)cc(OC)c1OC | 15% |
| COc1cc(Nc2nc(N)c(-c3nc(-c4cccc(NC(=O)c5ccc6c(c5)C(=O)c5ccccc5-6)c4)cs3)s2)cc(OC)c1OC | -4% |
| COc1cc(Nc2nc(N)c(-c3nc(-c4cccc(NC(=O)CCc5c[nH]c6ccccc56)c4)cs3)s2)cc(OC)c1OC | -4% |
| COc1cc(Nc2nc(N)c(-c3nc(-c4cccc(NC(=O)CNC(=O)c5ccccc5)c4)cs3)s2)cc(OC)c1OC | -26% |
| COc1cc(Nc2nc(N)c(-c3nc(-c4cccc(NC(=O)c5cc6ccccc6[nH]5)c4)cs3)s2)cc(OC)c1OC | 4% |
| COc1cc(Nc2nc(N)c(-c3nc(-c4cccc(NC(=O)c5c[nH]c6ccccc56)c4)cs3)s2)cc(OC)c1OC | 20% |
| COc1cc(Nc2nc(N)c(-c3nc(-c4cccc(NC(=O)Cc5ccc6ccccc6c5)c4)cs3)s2)cc(OC)c1OC | -7% |
| COc1cc(Nc2nc(N)c(-c3nc(-c4cccc(NC(=O)Cc5cccc6ccccc56)c4)cs3)s2)cc(OC)c1OC | 6% |
| COc1cc(Nc2nc(N)c(-c3nc(-c4cccc(NC(=O)c5ccc6ccccc6c5)c4)cs3)s2)cc(OC)c1OC | 53% |
| COc1cc(Nc2nc(N)c(-c3nc(-c4cccc(NC(=O)c5cccc6ccccc56)c4)cs3)s2)cc(OC)c1OC | 22% |
| COc1cc(Nc2nc(N)c(-c3nc(-c4cccc(NC(=O)CCCc5ccccc5)c4)cs3)s2)cc(OC)c1OC | 15% |
| COc1cc(Nc2nc(N)c(-c3nc(-c4cccc(NC(=O)/C(=C/c5ccccc5)c5ccccc5)c4)cs3)s2)cc(OC)c1OC | 3% |
| COc1cc(Nc2nc(N)c(-c3nc(-c4cccc(NC(=O)[C@@H]5C[C@H]5c5ccccc5)c4)cs3)s2)cc(OC)c1OC | -4% |
| COc1cc(Nc2nc(N)c(-c3nc(-c4cccc(NC(=O)CSc5ccncc5)c4)cs3)s2)cc(OC)c1OC | -34% |
| COc1cc(Nc2nc(N)c(-c3nc(-c4cccc(NC(=O)C(c5ccccc5)C5CCCC5)c4)cs3)s2)cc(OC)c1OC (stereo not shown) | 3% |
| CCC(C(=O)Nc1cccc(-c2csc(-c3sc(Nc4cc(OC)c(OC)c(OC)c4)nc3N)n2)c1)c1ccccc1 (stereo not shown) | 6% |
| COc1cc(Nc2nc(N)c(-c3nc(-c4cccc(NC(=O)C5(c6ccccc6)CCCC5)c4)cs3)s2)cc(OC)c1OC | -10% |

| Structure (SMILES) | inhibition at 0.15 µM |
| --- | --- |
| COc1cc(Nc2nc(N)c(-c3nc(-c4cccc(NC(=O)C5(c6ccccc6)CC5)c4)cs3)s2)cc(OC)c1OC | 11% |
| C=CCCC(=O)Nc1cccc(-c2csc(-c3sc(Nc4cc(OC)c(OC)c(OC)c4)nc3N)n2)c1 | 5% |
| COc1cc(Nc2nc(N)c(-c3nc(-c4cccc(NC(=O)C5CCc6ccccc6C5)c4)cs3)s2)cc(OC)c1OC (stereo not shown) | 11% |
| COc1cc(Nc2nc(N)c(-c3nc(-c4cccc(NC(=O)c5cccs5)c4)cs3)s2)cc(OC)c1OC | 29% |
| COc1cc(Nc2nc(N)c(-c3nc(-c4cccc(NC(=O)c5cccc(Oc6ccccc6)c5)c4)cs3)s2)cc(OC)c1OC | -3% |
| COc1cc(Nc2nc(N)c(-c3nc(-c4cccc(NC(=O)c5nn(-c6ccccc6)nc5C)c4)cs3)s2)cc(OC)c1OC | 0% |
| COc1cc(Nc2nc(N)c(-c3nc(-c4cccc(NC(=O)c5ccc6[nH]ccc6c5)c4)cs3)s2)cc(OC)c1OC | 15% |
| COc1cc(Nc2nc(N)c(-c3nc(-c4cccc(NC(=O)CCN5CCCCC5)c4)cs3)s2)cc(OC)c1OC | 15% |
| COc1cc(Nc2nc(N)c(-c3nc(-c4cccc(NC(=O)/C=C/c5c[nH]c6ccccc56)c4)cs3)s2)cc(OC)c1OC | 5% |
| COc1cc(Nc2nc(N)c(-c3nc(-c4cccc(NC(=O)/C=C/c5c[nH]cn5)c4)cs3)s2)cc(OC)c1OC | 2% |
| COc1cc(Nc2nc(N)c(-c3nc(-c4cccc(NC(=O)CCC5CCCC5)c4)cs3)s2)cc(OC)c1OC | 85% |
| COc1cc(Nc2nc(N)c(-c3nc(-c4cccc(NC(=O)C(=O)Cc5ccccc5)c4)cs3)s2)cc(OC)c1OC | 20% |
| C/C=C/CC(=O)Nc1cccc(-c2csc(-c3sc(Nc4cc(OC)c(OC)c(OC)c4)nc3N)n2)c1 | 38% |
| COc1cc(Nc2nc(N)c(-c3nc(-c4cccc(NC(=O)C5C(C=C(C)C)C5(C)C)c4)cs3)s2)cc(OC)c1OC (stereo not shown) | 19% |
| COc1cc(Nc2nc(N)c(-c3nc(-c4cccc(NC(=O)c5ccc(C)c(Br)c5)c4)cs3)s2)cc(OC)c1OC | 86% |
| COc1ccc(C(=O)Nc2cccc(-c3csc(-c4sc(Nc5cc(OC)c(OC)c(OC)c5)nc4N)n3)c2)cc1F | 51% |
| COc1cc(Nc2nc(N)c(-c3nc(-c4cccc(NC(=O)c5scc(S(=O)(=O)c6ccc(Cl)cc6)c5C)c4)cs3)s2)cc(OC)c1OC | 10% |
| COc1cc(Nc2nc(N)c(-c3nc(-c4cccc(NC(=O)C5CCCC5)c4)cs3)s2)cc(OC)c1OC | 12% |
| CCOC(=O)/C=C/C(=O)Nc1cccc(-c2csc(-c3sc(Nc4cc(OC)c(OC)c(OC)c4)nc3N)n2)c1 | 27% |
| COc1cc(Nc2nc(N)c(-c3nc(-c4cccc(NC(=O)Cc5cccc(C)c5)c4)cs3)s2)cc(OC)c1OC | 75% |
| COc1cc(Nc2nc(N)c(-c3nc(-c4cccc(NC(=O)C5C6CC7C(C6=O)C75)c4)cs3)s2)cc(OC)c1OC (stereo not shown) | -6% |
| COc1cc(Nc2nc(N)c(-c3nc(-c4cccc(NC(=O)c5ccc6c(c5)OC(F)(F)O6)c4)cs3)s2)cc(OC)c1OC | 72% |
| COc1cc(Nc2nc(N)c(-c3nc(-c4cccc(NC(=O)C5CC(=O)N5)c4)cs3)s2)cc(OC)c1OC (stereo not shown) | -2% |
| CCOC(=O)c1cc(C(=O)Nc2cccc(-c3csc(-c4sc(Nc5cc(OC)c(OC)c(OC)c5)nc4N)n3)c2)cc(C(=O)OCC)c1 | 6% |

| Structure (SMILES) | inhibition at 0.15 µM |
| --- | --- |
| COc1cc(Nc2nc(N)c(-c3nc(-c4cccc(NC(=O)c5cc6c(cc5C)C(C)(C)C(C)CC6(C)C)c4)cs3)s2)cc(OC)c1OC (stereo not shown) | 7% |
| COc1cc(Nc2nc(N)c(-c3nc(-c4cccc(NC(=O)c5ccc6c(c5)C(=O)N(C)C6=O)c4)cs3)s2)cc(OC)c1OC | -3% |
| COc1cc(Nc2nc(N)c(-c3nc(-c4cccc(NC(=O)c5ccc6c(c5)C(=O)NC6=O)c4)cs3)s2)cc(OC)c1OC | -6% |
| COc1cc(Nc2nc(N)c(-c3nc(-c4cccc(NC(=O)C#Cc5ccccc5)c4)cs3)s2)cc(OC)c1OC | -25% |
| COc1cc(Nc2nc(N)c(-c3nc(-c4cccc(NC(=O)Cc5ccccc5F)c4)cs3)s2)cc(OC)c1OC | 21% |
| COc1cc(Nc2nc(N)c(-c3nc(-c4cccc(NC(=O)Cc5cccnc5)c4)cs3)s2)cc(OC)c1OC | -20% |
| COc1cc(Nc2nc(N)c(-c3nc(-c4cccc(NC(=O)/C=C/c5ccccn5)c4)cs3)s2)cc(OC)c1OC | -7% |
| COc1cc(Nc2nc(N)c(-c3nc(-c4cccc(NC(=O)Cc5cc(F)ccc5F)c4)cs3)s2)cc(OC)c1OC | 49% |
| COc1cccc(CC(=O)Nc2cccc(-c3csc(-c4sc(Nc5cc(OC)c(OC)c(OC)c5)nc4N)n3)c2)c1 | 12% |
| COc1cc(Nc2nc(N)c(-c3nc(-c4cccc(NC(=O)Cc5cc(C)ccc5C)c4)cs3)s2)cc(OC)c1OC | 12% |
| COc1cc(Nc2nc(N)c(-c3nc(-c4cccc(NC(=O)C5C[C@@H]6C=C[C@H]5C6)c4)cs3)s2)cc(OC)c1OC (stereo partly shown) | 37% |
| COC(=O)c1cccc(C(=O)Nc2cccc(-c3csc(-c4sc(Nc5cc(OC)c(OC)c(OC)c5)nc4N)n3)c2)c1 | 42% |
| COC(=O)c1ccc(C(=O)Nc2cccc(-c3csc(-c4sc(Nc5cc(OC)c(OC)c(OC)c5)nc4N)n3)c2)nc1 | 20% |
| COc1cc(Nc2nc(N)c(-c3nc(-c4cccc(NC(=O)c5c[nH]cn5)c4)cs3)s2)cc(OC)c1OC | 15% |
| COc1cc(OC)cc(C(=O)Nc2cccc(-c3csc(-c4sc(Nc5cc(OC)c(OC)c(OC)c5)nc4N)n3)c2)c1 | 51% |
| COc1cc(Nc2nc(N)c(-c3nc(-c4cccc(NC(=O)CCc5ccc(C)cc5)c4)cs3)s2)cc(OC)c1OC | 25% |
| COc1cc(Nc2nc(N)c(-c3nc(-c4cccc(NC(=O)C5Cc6ccccc65)c4)cs3)s2)cc(OC)c1OC (stereo not shown) | 56% |
| COc1cc(Nc2nc(N)c(-c3nc(-c4cccc(NC(=O)c5cc(C)cc(C)c5)c4)cs3)s2)cc(OC)c1OC | 78% |
| COc1cc(Nc2nc(N)c(-c3nc(-c4cccc(NC(=O)c5ccc(NC(C)=O)cc5)c4)cs3)s2)cc(OC)c1OC | 16% |
| COc1cc(Nc2nc(N)c(-c3nc(-c4cccc(NC(=O)c5ccc(C(C)(C)C)cc5)c4)cs3)s2)cc(OC)c1OC | 26% |
| COc1cc(Nc2nc(N)c(-c3nc(-c4cccc(NC(=O)c5ccc(C)cc5)c4)cs3)s2)cc(OC)c1OC | 66% |
| COc1cc(Nc2nc(N)c(-c3nc(-c4cccc(NC(=O)CC(C)c5ccccc5)c4)cs3)s2)cc(OC)c1OC (stereo not shown) | 26% |
